Assay [1] relates to C57Bl/6 mice. Nature of the assay: Locomotor activity after i.c.v. administration in naive and habituated mice. Conditions: for locomotor activity: naive and habituated mice, 60 min observation. Type of assay: in vivo. The protocol:
In view of the NPSR sites of expression and the prominent expression of the NPS precursor in LC area, we hypothesized that NPS may be involved in arousal and anxiety. To start this investigation, we tested the effects of NPS on locomotor activity in both naive and habituated mice (FIG. 7A).
(§1) Male C57Bl/6 mice (National Cancer Institute, Bethesda, MD), age 10-14 weeks, were group-housed (4 animals per cage) under controlled conditions (temperature 21±2° C.; relative humidity 50-60%; 12-hour light-dark cycle, lights on 6:00 AM) with free access to food and water. Prior to drug injections, mice were briefly anesthetized with halothane. NPS was dissolved in phosphate-buffered saline (PBS, pH 7.4) and injected i.c.v. (total volume: 2 μl) as described before (Laursen and Belknap, 1986). Mice were allowed to recover for 5 min and then placed in the observation apparatus.
(§2) Locomotion was monitored in rectangular plexiglass boxes (60×40×50 cm). Horizontal activity was measured over 60 min by 18×12 infrared sensors placed 2 cm above the floor. A second row of sensors at 8 cm above the floor was used to record rearing events. The imaginary central zone was defined as a 30×20 cm rectangle in the middle of each observation area. Data were collected using MatLab (Mathworks, Natick, Mass.). Experimental procedures for open field, elevated plus-maze and light-dark box were described previously (Köster et al., 1999). Marble burying was measured in mice placed individually in polypropylene cages (30×18×12 cm) containing 18 glass marbles (1.5 cm diameter) evenly spaced on 5 cm deep rodent bedding (bed-o'cob, The Andersons Inc., Maumee, Ohio) (Njung'e and Handley, 1991). No food or water was present during the observation period. Cages were covered with a metal grid and the number of marbles covered at least two-thirds was counted after 30 min.

In the next assay the target is T1, NPSR Ile^107 (Homo sapiens, UniProt Q6W5P4, N107I).
T1 construct: The Ile^107 isoform of NPSR was generated by PCR using synthetic oligonucleotides and the Quik Change Site-Directed Mutagenesis kit from Stratagene; expressed in transfected cells
T1 sequence (Q6W5P4 1-371 N107I): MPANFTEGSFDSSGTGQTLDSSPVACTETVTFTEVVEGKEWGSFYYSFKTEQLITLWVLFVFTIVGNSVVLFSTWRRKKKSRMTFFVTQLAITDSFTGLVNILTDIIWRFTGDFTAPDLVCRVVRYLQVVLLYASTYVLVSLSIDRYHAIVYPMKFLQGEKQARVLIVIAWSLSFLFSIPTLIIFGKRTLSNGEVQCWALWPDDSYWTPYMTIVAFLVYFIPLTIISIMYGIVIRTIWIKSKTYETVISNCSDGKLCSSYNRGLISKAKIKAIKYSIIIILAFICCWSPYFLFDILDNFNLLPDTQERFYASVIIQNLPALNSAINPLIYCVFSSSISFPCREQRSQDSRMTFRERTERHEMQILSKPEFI
Kind of assay: CRE-luciferase reporter gene assay, HEK 293 cells, NPSR Ile107. Type of assay: cell-based. Particulars: transiently transfected HEK cells. The source says: HEK 293 cells were stably transfected with a reporter gene containing 6 copies of a cAMP response element (CRE; sequence […]) in front of a luciferase reporter gene (Promega) cloned into pcDNA3.1 neo. One stable clone showing robust induction of reporter gene expression after forskolin challenge was chosen for further experiments. The different NPSR isoform cDNAs (cloned into pcDNA3.1 hygro) were transfected into these cells using lipofectamine and stable clones were selected. The same cells and procedures were also used for transient transfection. For induction of reporter gene expression cells were plated in 96-well plates and incubated with agonist for 5 hours in serum-free medium, followed by aspiration of the medium and cell lysis with 25 mM Tris-phosphate, pH 7.8, 2 mM dithiothreitol, 2 mM 1,2-diaminocyclohexane-N,N,N′,N′,-tetraacetic acid, 10% glycerol, 1% Triton X-100. After one freeze-thaw cycle aliquots of supernatant were transferred to white clear-bottom 96-well plates (Greiner) and luciferase content was quantified by bioluminescence (Luc-Screen, Applied Biosystems). Plates were counted in a scintillation counter using bioluminescence settings (MicroBeta, Wallac-Perkin Elmer).

Assay [2] has as its system C57Bl/6 mice. Kind of assay: Elevated plus maze. It counts as in vivo. The procedure: as §1, §2
A further assay relates to Sprague-Dawley rats. Nature of the assay: Sleep-wake EEG/EMG recording after i.c.v. administration in rats. It counts as in vivo. Conditions: for share of first hour of recording spent in wakefulness: saline 45%. The procedure:
Rats were implanted with a standard set of electrodes and electroencephalograms (EEG) and electromyograms (EMG) were recorded after i.c.v. administration of NPS. Polygraphic recordings of vigilance states indicate that rats treated with 0.1 nmole and 1.0 nmole of NPS spent up to 69% and 87%, respectively, of the first hour of recording in wakefulness, compared to 45% for saline treatment (F2,21=16.80; p<0.01) (FIG. 7B).
For sleep studies, adult male Sprague-Dawley rats (250-300 g) were implanted under halothane anesthesia (1-2%) with a stainless steel cannula for i.c.v. administration and a standard set of stainless steel screw electrodes for chronic sleep recordings as reported previously (Bourgin et al., 2000). Rats were injected with NPS or vehicle (5 μl) at the beginning of the light cycle and cortical activity was recorded over 6 hours. All animal experiments had been approved by the local IACUC committee and were done in accordance with federal regulations and guidelines on animal experimentation.

Assay [3] concerns Colo205 human colon cancer cells. Kind of assay: Cell proliferation, [3H]-thymidine incorporation in Colo205 cells. Type of assay: cell-based. The protocol: (§3) Cells were seeded in 24-well plates and grown overnight to 60-70% confluency. Following 24 h serum-starvation, 2 μCi of methyl-[^3H] thymidine was added together with increasing concentrations of NPS. 500 nM PGE2 served as a positive control. After 3 h incubation cells were washed 3 times with PBS and then lysed with 0.5 N NaOH. The lysate was neutralized with 0.5 N HCl and aliquots were counted in a liquid scintillation counter for incorporated radioactivity.

Assay [4] relates to human colon cancer cell line DLD-1. Kind of assay: Cell proliferation, [3H]-thymidine incorporation in DLD-1 cells (negative control line). It counts as cell-based. Conditions: no NPSR transcripts. The procedure:
as §3

Assay [5] relates to C57Bl/6 mice. Kind of assay: Light-dark box. It counts as in vivo. The procedure:
as §1, §2

The mark [6] stands for this setting: i.c.v., rats, compared with saline.

Bounds are passed on as bounds.

On to “NPS: neuropeptide S, endogenous NPSR ligand; species of the peptide not stated at the place of the result (SFRNGVGTGMKKTSFQRAKS)”, for which the locomotor activity result in the assay with C57Bl/6 mice [1] (0.1 nmole i.c.v.) is recorded as “significant increase”. Moreover, the locomotor activity result in the assay on C57Bl/6 mice [1] (1 nmole i.c.v.) is listed as “significant increase”. The “total distance traveled, percentage of time moving, number of rearing events and center entries” value in the assay with C57Bl/6 mice [1] (0.1 and 1 nmole i.c.v., mice) is “significantly increased”. Further, the “maximum of reporter gene expression relative to NPSR WT or NPSR C-alt” value with NPSR Ile^107 was “about 2 fold”. Further, in the assay on C57Bl/6 mice [2] (0.1 and 1 nmole i.c.v.), the “number of transitions from closed to open arms” value is listed as “higher number of transitions” and the “time on the open arms” value is “significantly more time”. For the same substance, in the assay on C57Bl/6 mice [2] (all doses i.c.v.), the “closed-closed transitions (general activity)” value is reported as “did not reach statistical significance”. The “share of first hour of recording spent in wakefulness” value in the assay with Sprague-Dawley rats (0.1 nmole i.c.v., rats) is on record as “up to 69%”. Also, in the assay with Sprague-Dawley rats (1.0 nmole i.c.v., rats), the “share of first hour of recording spent in wakefulness” value is reported as at most 87%. Also, the “rebound in amount of non-REM sleep, increase vs. saline” value in the assay on Sprague-Dawley rats (fourth hour post injection, rats) is listed as 48%. For the same substance, the “mean duration of wakefulness episodes” value in the assay on Sprague-Dawley rats (i.c.v., rats, compared to saline group) is “significant increase”. Moreover, in the assay on Sprague-Dawley rats (setting [6]), the “amount of REM sleep” value is recorded as “significantly reduced”, the “amount of slow wave sleep stage 1 (SWS1)” value is given as “significantly reduced” and the “amount of slow wave sleep stage 2 (SWS2)” value is on record as “significantly reduced”. Besides, the “rebound in amount of non-REM sleep, increase vs. saline” value in the assay with Sprague-Dawley rats (second hour post injection, rats) worked out at 20%. Besides, the “duration of arousal effect” value with Sprague-Dawley rats (single i.c.v. administration) is “within the first hour post injection”. In addition, the “doses producing maximal thymidine incorporation” value in assay [3] is 0.1 to 10 nM. Further, the thymidine incorporation entry in assay [3] (3 h incubation) is recorded as “dose-dependent stimulation”. The thymidine incorporation result in assay [4] is “no NPS-dependent thymidine incorporation”. In the assay on C57Bl/6 mice [5] (0.03-3 nmole i.c.v.), the “percentage of entries in the light area” value is “higher percentage” and the “time in the light area” value is “prolonged time”. In addition, the “number of transitions between the two compartments” value in the assay on C57Bl/6 mice [5] (0.1-3 nmole i.c.v.) was “significantly increased”. Besides, in the assay with C57Bl/6 mice [5] (0.3-3 nmole i.c.v.), the “latency until first exit from the dark compartment” value is given as “significantly reduced”.

The values above are taken from patent publication US9012407B2, “Therapies which act on neuropeptide S receptors” (The Regents of the University of California, priority 2004, dated 2015).
